Some results are limits rather than exact numbers.

Chain of human activated kallikrein enzyme (P03952 391-638 limits assumed): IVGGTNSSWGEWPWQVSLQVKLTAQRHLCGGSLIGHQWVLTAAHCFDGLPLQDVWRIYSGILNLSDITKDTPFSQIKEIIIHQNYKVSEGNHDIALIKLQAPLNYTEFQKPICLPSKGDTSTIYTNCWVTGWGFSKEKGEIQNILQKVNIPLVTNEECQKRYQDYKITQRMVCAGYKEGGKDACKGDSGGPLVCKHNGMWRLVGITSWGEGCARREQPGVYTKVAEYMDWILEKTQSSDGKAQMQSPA
Chain of human activated kallikrein enzyme (P03952 20-390 partner limits assumed): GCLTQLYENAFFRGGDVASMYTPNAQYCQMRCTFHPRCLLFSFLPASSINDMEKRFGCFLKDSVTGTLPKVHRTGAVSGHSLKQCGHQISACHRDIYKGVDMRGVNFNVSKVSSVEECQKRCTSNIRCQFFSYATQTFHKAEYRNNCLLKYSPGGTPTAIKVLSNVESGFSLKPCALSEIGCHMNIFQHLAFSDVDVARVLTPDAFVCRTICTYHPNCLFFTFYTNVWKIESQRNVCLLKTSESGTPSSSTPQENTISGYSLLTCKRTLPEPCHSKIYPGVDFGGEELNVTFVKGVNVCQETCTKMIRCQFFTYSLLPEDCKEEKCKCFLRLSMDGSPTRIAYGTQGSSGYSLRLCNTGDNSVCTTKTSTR

This assay has as its target human activated kallikrein enzyme (Homo sapiens, UniProt P03952). Description: Inhibition of human activated plasma kallikrein, fluorogenic PFR-AMC substrate, 500 pM enzyme format. Particulars: 500 pM activated kallikrein; 300 μM PFR-AMC; 30 min preincubation; 10 min room temperature; pH 7.5; read-out: Primary Dose Response Assay: Average EC50. In kind it is biochemical. The gist of the method: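 Using fluorogenic PFR-AMC at 300 μM, cleavage by 500 pM human activated kallikrein ran 10 min at room temperature, read at 460 nm emission (380 nm excitation). Enzyme and compounds were first preincubated 30 min in 20 mM Tris pH 7.5, 150 mM NaCl, 1 mM EDTA, 0.1% PEG-400, 0.1% Triton X-100.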
A word on the EC50: it is the concentration needed to bring the measured effect to its halfway point. For `Cc1cc2c(N)nccc2c(C)c1CNc1cc(NCc2ccc(Cn3cccn3)cc2F)ncn1` [Example 379, N^4-(4-((1H-pyrazol-1-yl)methyl)-2-fluorobenzyl)-N^6-((1-amino-5,7-dimethylisoquinolin-6-yl)methyl)pyrimidine-4,6-diamine], the EC50 was < 1 nM. For the molecule `Cc1cc2c(N)nccc2c(C)c1CNc1ncnc2oc(Cc3ccc4ncc(Cl)cc4c3)nc12` [Example 538, N-((1-amino-5,7-dimethylisoquinolin-6-yl)methyl)-2-((3-chloroquinolin-6-yl)methyl)oxazolo[5,4-d]pyrimidin-7-amine], the EC50 lay in the range of 10 to 100 nM.

Regarding `Cc1cc2c(N)nccc2c(C)c1CNc1cc(NCc2ccc(Cc3ncccc3Cl)cc2)ncn1` [Example 365, N^4-((1-amino-5,7-dimethylisoquinolin-6-yl)methyl)-N^6-(4-((3-chloropyridin-2-yl)methyl)benzyl)pyrimidine-4,6-diamine], the EC50 was in the range of 1 to 10 nM. Turning to `Cc1ccc2cc(CNc3cc(NCc4c(C)cc5c(N)nccc5c4C)ncn3)ccc2n1` [Example 335, N^4-((1-amino-5,7-dimethylisoquinolin-6-yl)methyl)-N^6-((2-methylquinolin-6-yl)methyl)pyrimidine-4,6-diamine], the EC50 is < 1 nM. Then `Cc1ccc2nc(Cn3cc(C(=O)NCc4c(C)cc5c(N(C(=O)OC(C)C)C(=O)OC(C)C)nccc5c4C)cn3)cn2c1` [Example 3, diisopropyl (5,7-dimethyl-6-((1-((6-methylimidazo[1,2-a]pyridin-2-yl)methyl)-1H-pyrazole-4-carboxamido)methyl)isoquinolin-1-yl)iminodicarbonate], with 100 to 1000 nM; and `Cc1cc2c(N)nccc2c(C)c1CNC(=O)c1cnn(Cc2cc3cc(F)ccc3o2)c1` [Example 57, N-((1-amino-5,7-dimethylisoquinolin-6-yl)methyl)-1-((5-fluorobenzofuran-2-yl)methyl)-1H-pyrazole-4-carboxamide], with 10 to 100 nM. Regarding `Cc1cc2c(N)nccc2c(C)c1CNc1nccc2cn(Cc3nc4ccc(C5CC5)cn4n3)nc12` [Example 263, 6-(((2-((6-cyclopropyl-[1,2,4]triazolo[1,5-a]pyridin-2-yl)methyl)-2H-pyrazolo[3,4-c]pyridin-7-yl)amino)methyl)-5,7-dimethylisoquinolin-1-amine], the EC50 lay in the range of 1 to 10 nM. With `Cc1cc2c(Nc3cc(OCc4ccc5ncc(C6CC6)cc5c4)ccn3)nccc2c(C)c1CN` [Example 238, 6-(aminomethyl)-N-(4-((3-cyclopropylquinolin-6-yl)methoxy)pyridin-2-yl)-5,7-dimethylisoquinolin-1-amine], the EC50 was 100 to 1000 nM. Next, `Cc1cc(CNc2cc(NCc3c(C)cc4c(N)nccc4c3C)ncn2)cc(C)c1Cc1ccccn1` [Example 368, N^4-((1-amino-5,7-dimethylisoquinolin-6-yl)methyl)-N^6-(3,5-dimethyl-4-(pyridin-2-ylmethyl)benzyl)pyrimidine-4,6-diamine]: < 1 nM; `Cc1cc2c(N)nccc2c(C)c1CNC(=O)c1cnn(Cc2ccc(CC(=O)Nc3ccccc3)cc2)c1` [Example 227, N-((1-amino-5,7-dimethylisoquinolin-6-yl)methyl)-1-(4-(2-oxo-2-(phenylamino)ethyl)benzyl)-1H-pyrazole-4-carboxamide]: 10 to 100 nM; `Cc1cc2c(N)nccc2c(C)c1CNC(=O)c1cnn(Cc2cn3c(C)c(C4CC4)ccc3n2)c1` [Example 104, N-((1-amino-5,7-dimethylisoquinolin-6-yl)methyl)-1-((6-cyclopropyl-5-methylimidazo[1,2-a]pyridin-2-yl)methyl)-1H-pyrazole-4-carboxamide]: < 1 nM. On to `Cc1c(CNc2cc(NCc3ccc(Cn4ccccc4=O)cc3)cnn2)ccc2c(N)nccc12` [Example 536, 1-(4-(((6-(((1-amino-5-methylisoquinolin-6-yl)methyl)amino)pyridazin-4-yl)amino)methyl)benzyl)pyridin-2(1H)-one], for which the EC50 was < 1 nM. Turning to `Cc1cc2c(N)nccc2c(C)c1CNc1ccc2ncc(C(O)c3ccc4ccccc4c3)n2c1` (stereo not drawn) [Example 521, (6-(((1-amino-5,7-dimethylisoquinolin-6-yl)methyl)amino)imidazo[1,2-a]pyridin-3-yl)(naphthalen-2-yl)methanol], the EC50 is > 1000 nM. With `CCOC(=O)Nc1nccc2c(C)c(CNc3cc(N(Cc4ccc(Cn5ccccc5=O)cc4)C(=O)OCC)ncn3)c(C)cc12` [Example I-481, ethyl (6-(((1-((ethoxycarbonyl)amino)-5,7-dimethylisoquinolin-6-yl)methyl)amino)pyrimidin-4-yl)(4-((2-oxopyridin-1(2H)-yl)methyl)benzyl)carbamate], the EC50 was > 1000 nM. `Cc1cc2c(N)nccc2c(C)c1CNC(=O)c1cnn(Cc2ccc(F)cc2)c1` [Example 39, N-((1-amino-5,7-dimethylisoquinolin-6-yl)methyl)-1-(4-fluorobenzyl)-1H-pyrazole-4-carboxamide]: the EC50 lay in the range of 100 to 1000 nM. With `Cc1c(CN)c(C2(C)CC2)cc2c(Nc3cc(OCc4cn5cc(C6CC6)ccc5n4)ncn3)nccc12` [Example 255, 6-(aminomethyl)-N-(6-((6-cyclopropylimidazo[1,2-a]pyridin-2-yl)methoxy)pyrimidin-4-yl)-5-methyl-7-(1-methylcyclopropyl)isoquinolin-1-amine], the EC50 lay within 100 to 1000 nM. Next, `Cc1cc2c(N)nccc2c(C)c1CNC(=O)c1ccnc(Cc2ccc(Cn3cccn3)cc2)c1` [Example 183]: < 1 nM; `Cc1cc2c(N)nccc2c(C)c1CNS(=O)(=O)c1cn(Cc2cn3cc(C4CC4)ccc3n2)nn1` [Example 491, N-((1-amino-5,7-dimethylisoquinolin-6-yl)methyl)-1-((6-cyclopropylimidazo[1,2-a]pyridin-2-yl)methyl)-1H-1,2,3-triazole-4-sulfonamide]: 10 to 100 nM. Consider `Cc1cc2c(N)nccc2c(C)c1CNC(=O)c1cnn(Cc2ccc3cc(Cl)ccc3n2)c1` [Example 157, N-((1-amino-5,7-dimethylisoquinolin-6-yl)methyl)-1-((6-chloroquinolin-2-yl)methyl)-1H-pyrazole-4-carboxamide], for which the EC50 fell in the range of 1 to 10 nM. Then `Cc1cc2c(N)nccc2c(C)c1CNc1cc(OCc2ccc(CCn3cccn3)cc2)cnn1` [Example 278, 6-(((5-((4-(2-(1H-pyrazol-1-yl)ethyl)benzyl)oxy)pyridazin-3-yl)amino)methyl)-5,7-dimethylisoquinolin-1-amine], with 1 to 10 nM; and `Cc1ccc2nc(CNc3cc(NCc4c(C)cc5c(N)nccc5c4C)ncn3)cn2c1` [Example 333, N^4-((1-amino-5,7-dimethylisoquinolin-6-yl)methyl)-N^6-((6-methylimidazo[1,2-a]pyridin-2-yl)methyl)pyrimidine-4,6-diamine], with < 1 nM. Next, `CCOC(=O)CCc1nc(NCc2c(C)cc3c(N)nccc3c2C)cc(OCc2nc3ccc(C4CC4)cn3n2)n1` [Example 292, ethyl 3-(4-(((1-amino-5,7-dimethylisoquinolin-6-yl)methyl)amino)-6-((6-cyclopropyl-[1,2,4]triazolo[1,5-a]pyridin-2-yl)methoxy)pyrimidin-2-yl)propanoate]: 10 to 100 nM; `Cc1cc2c(N)nccc2c(C)c1CNc1ncnc2[nH]c(Cc3ccc4ccccc4c3)cc12` [Example 540, 5,7-dimethyl-6-(((6-(naphthalen-2-ylmethyl)-7H-pyrrolo[2,3-d]pyrimidin-4-yl)amino)methyl)isoquinolin-1-amine]: 10 to 100 nM; `Cc1cc2c(N)nccc2c(C)c1CNC(=O)c1cnn(Cc2ccc3cc(Br)ccc3n2)c1` [Example 69, N-((1-amino-5,7-dimethylisoquinolin-6-yl)methyl)-1-((6-bromoquinolin-2-yl)methyl)-1H-pyrazole-4-carboxamide]: 1 to 10 nM. On to `Cc1cc2c(N)nccc2c(C)c1CNC(=O)c1cnn(Cc2sc3ccccc3c2Cl)c1` [Example 80, N-((1-amino-5,7-dimethylisoquinolin-6-yl)methyl)-1-((3-chlorobenzo[b]thiophen-2-yl)methyl)-1H-pyrazole-4-carboxamide], for which the EC50 fell in the range of 100 to 1000 nM. With `Cc1cc2c(N)nccc2c(C)c1CNc1cc(NCc2ccc(Cn3cc(Cl)cc(Cl)c3=O)cc2)ncn1` [Example I-463, 1-(4-(((6-(((1-amino-5,7-dimethylisoquinolin-6-yl)methyl)amino)pyrimidin-4-yl)amino)methyl)benzyl)-3,5-dichloropyridin-2(1H)-one], the EC50 was < 1 nM. With `Cc1cnc2ccc(Cn3cc(C(=O)NCc4c(C)cc5c(N)nccc5c4C)cn3)cc2n1` [Example 24, N-((1-amino-5,7-dimethylisoquinolin-6-yl)methyl)-1-((3-methylquinoxalin-6-yl)methyl)-1H-pyrazole-4-carboxamide], the EC50 was < 1 nM. Next, `C/C=C\c1ccc2nc(Cn3ccc(C(=O)NCc4c(C)cc5c(N)nccc5c4C)n3)cn2c1` [Example 177, (Z)-N-((1-amino-5,7-dimethylisoquinolin-6-yl)methyl)-1-((6-(prop-1-en-1-yl)imidazo[1,2-a]pyridin-2-yl)methyl)-1H-pyrazole-3-carboxamide]: < 1 nM. Turning to `Cc1cc2c(N)nccc2c(C)c1CNC(=O)c1cnn(Cc2cncnc2)c1` [Example 77, N-((1-amino-5,7-dimethylisoquinolin-6-yl)methyl)-1-(pyrimidin-5-ylmethyl)-1H-pyrazole-4-carboxamide], the EC50 lay in the range of 100 to 1000 nM. Next, `Cc1cc2c(N)nccc2c(C)c1CNC(=O)c1cnn(Cc2ccc(Cc3nccs3)cc2)c1` [Example 166, N-((1-amino-5,7-dimethylisoquinolin-6-yl)methyl)-1-(4-(thiazol-2-ylmethyl)benzyl)-1H-pyrazole-4-carboxamide]: < 1 nM.
